Reference: US20250332178A1, “METHODS OF TREATING MYCOBACTERIAL INFECTIONS USING TETRACYCLINE COMPOUNDS” (priority 2018, published 2025)
≈ marks a conversion by molar mass, not a printed value.

What was measured:
[1] = test system: M. abscessus subsp. abscessus CIP 104536; assay: Time-kill kinetics assay; assay type: cell-based
Procedure: Briefly, M. abscessus cultures were exposed to antimicrobial drugs at 4-fold increasing concentrations for 7 days at 37° C. under shaking conditions at 96 rpm. […] The drug concentrations ranged from 0.063 to 256 mg/L for both compounds. […] At day 1, 3 and 7 during drug exposure, samples were collected, centrifuged at 14000 xg to avoid anti-NTM drug carry over, serially diluted (10-fold, 10^0-10^7) and subcultured onto solid medium. […] The lower limit of detection was 5 cfu/mL (log 0.7). All experiments were performed in duplicate. Time-kill curves, as well as concentration-effect curves were generated.

[2] = daily; previously shown (Bax et al.); cited from earlier work
[3] = test system: M. abscessus subsp. abscessus CIP 104536; assay: MIC according to CLSI guidelines; conditions: Mycobacteroides abscessus, CIP104536, read-out: Minimal Inhibitory Concentration (MIC)
Procedure: Vials with M. abscessus suspensions were stored at −80° C. Cultures on solid medium were grown on Mueller Hinton II agar (BD), supplemented with 10% OADC and 0.5% glycerol for 10 days at 37° C. with 5% CO2.

[4] = MIC by broth microdilution in CAMHB, clinical isolates; assay type: cell-based, Mycobacterium chelonae
[5] = Intra-pulmonary steady-state concentrations (plasma, ELF, alveolar cells) after multiple IV doses in healthy adult subjects; assay type: in vivo, human; conditions: model-computed
Procedure: The remaining 20 subjects received tigecycline as 1 intravenous dose of 100 mg administered as a 30 minute infusion at t=0, followed by 6 intravenous doses of 50 mg administered as 30 minute infusions at t=12, 24, 36, 48, 60, and 72 hours. A study completion visit was conducted on the day following the final test article dose. There was a final follow-up assessment 7 to 14 days following the subject's last dose of test article which may be completed by telephone contact or other interactive technology unless an examination was needed to evaluate adverse events or abnormalities noted at the study completion visit.
Plasma PK samples were collected pre-dose and at 0.5, 1, 1.5, 2, 3, 4, 6, 8, 12 and 24 hours post-dose on day 4. […] One BAL sample was collected from each subject on day 4. Subjects were randomized to one of the following collection times: 0.5, 1, 2, 4, 8, 12 or 24 hours post-dose.

M. abscessus = conditions: strains of M. abscessus; Wallace et al.; cited from earlier work
[6] = 52 patients, M. abscessus and M. chelonae infections; Wallace et al.; cited from earlier work

CN(C)c1cc(NC(=O)CNC(C)(C)C)c(O)c2c1C[C@H]1C[C@H]3[C@H](N(C)C)C(O)=C(C(N)=O)C(=O)[C@@]3(O)C(O)=C1C2=O [Tigecycline, tigecycline]
concentration for 1 log mycobacterial killing ([1]; after 7 days of exposure): 2.7 mg/L | concentration for 2 log mycobacterial killing ([1]; after 7 days of exposure): 3.4 mg/L | concentration for stasis (concentration-effect curve) ([1]; after 7 days of exposure): 2.2 mg/L | concentrations showing mycobacterial killing ([1]; time-kill, up to 7 days exposure): ≥ 4 mg/L | decline in concentration [2]: 80% | MIC [3]: 4 µg/mL (≈ 6.83 µM) | MIC90 [4]: 0.125 µg/mL (≈ 0.213 µM) | MIC ([4]; isolate No. 1, MC 7323): 0.125 µg/mL (≈ 0.213 µM) | MIC ([4]; isolate No. 2, MC 7534): 0.03 µg/mL (≈ 0.0512 µM) | MIC ([4]; isolate No. 3, MC 7368): 0.03 µg/mL (≈ 0.0512 µM) | MIC ([4]; isolate No. 4, MC 7514): 0.06 µg/mL (≈ 0.102 µM) | MIC ([4]; isolate No. 5, MC 7584): 0.06 µg/mL (≈ 0.102 µM) | MIC ([4]; isolate No. 6, MC 7192): 0.03 µg/mL (≈ 0.0512 µM) | MIC ([4]; isolate No. 7, MC 7466): 0.03 µg/mL (≈ 0.0512 µM) | MIC ([4]; isolate No. 8, MC 7533): 0.125 µg/mL (≈ 0.213 µM) | MIC ([4]; isolate No. 9, MC 7579): 0.03 µg/mL (≈ 0.0512 µM) | MIC ([4]; isolate No. 10, MC 7614): 0.125 µg/mL (≈ 0.213 µM) | MIC ([4]; isolate No. 11, MC 7414): 0.06 µg/mL (≈ 0.102 µM) | MIC ([4]; isolate No. 12, MC 7313): 0.25 µg/mL (≈ 0.427 µM) | MIC ([4]; isolate No. 13, MC 7281): 0.5 µg/mL (≈ 0.854 µM) | MIC ([4]; isolate No. 14, MC 7328): 0.015 µg/mL (≈ 0.0256 µM) | MIC ([4]; isolate No. 15, MC 7294): 0.125 µg/mL (≈ 0.213 µM) | MIC ([4]; isolate No. 16, MC 14-S-03): 0.5 µg/mL (≈ 0.854 µM) | MIC ([4]; isolate No. 17, MC 14-S-04): 0.06 µg/mL (≈ 0.102 µM) | MIC ([4]; isolate No. 18, MC 14-S-05): 0.125 µg/mL (≈ 0.213 µM) | MIC ([4]; isolate No. 19, MC 14-S-06): 0.03 µg/mL (≈ 0.0512 µM) | MIC ([4]; isolate No. 20, MC 14-S-07): 0.06 µg/mL (≈ 0.102 µM) | MIC ([4]; isolate No. 21, MC 35757): 0.125 µg/mL (≈ 0.213 µM) | MIC ([4]; isolate No. 22, MC 7302): 0.25 µg/mL (≈ 0.427 µM) | AUC ([5]; human, in vivo, compartment models, read-out: Total-drug AUC72-96, ELF (Median)): 2590 ng·h/mL | Kp ([5]; human, in vivo, read-out: Penetration Ratio: total-drug ELF AUC72-84 to free-drug plasma AUC72-84 (Median)): 1.87 | Free-drug AUC72-96, Plasma (Median) ([5]; compartment models): 1380 ng·h/mL | in vitro activity (in words) (M. abscessus): good activity | dose reductions due to nausea, vomiting or anorexia [6]: Approximately half of the patients had dose reductions
